Results taken from patent US11352350B2, “IRAK degraders and uses thereof” (Kymera Therapeutics, Inc., priority 2018, dated 2022).
Where two headings read alike, the source gives them in different places.

Key:
IRAK4 = IRAK4 (Homo sapiens (Human), UniProt Q9NWZ3); assay: IRAK4 MSD degradation in OCI-LY10; format: cell-based; conditions: MSD
Method in brief: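 OCI-LY10 cells treated with 8-point 1:3 dilutions (top 1 to 10 μM final) for 4 to 24 h at 37° C. Lysate IRAK4 measured by MSD sandwich immunoassay (2H9 capture, Y279 detection, SULFO-TAG anti-rabbit). DC50 from three-parameter logistic fit.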

OCI-LY10 = assay: CTG Cell Viability Assay - OCI-LY10; format: cell-based, human; conditions: Homo sapiens, OCI-Ly10, 96 h, OCI-LY10, 4 days; read-out: CTG Cell Viability Assay - OCI-LY10: Average external-IC50
Method in brief: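 OCI-LY10 cells exposed to 9-dose, 1:3 dilutions from 10 μM top (0.2% DMSO) for 4 days at 37° C, 5% CO2. Viability by CellTiter-Glo luminescence; IC50 from three-parameter logistic fit.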

[1] = OCI-LY10, 4 hrs, read-out: IRAK4 MSD degradation in OCI-LY10 at 4 hrs: Average external-Abs DC50
[2] = OCI-LY10, 24 hrs, read-out: IRAK4 MSD degradation in OCI-LY10 at 24 hrs: Average external-Abs DC50

Sequence of IRAK4 (Q9NWZ3 whole entry): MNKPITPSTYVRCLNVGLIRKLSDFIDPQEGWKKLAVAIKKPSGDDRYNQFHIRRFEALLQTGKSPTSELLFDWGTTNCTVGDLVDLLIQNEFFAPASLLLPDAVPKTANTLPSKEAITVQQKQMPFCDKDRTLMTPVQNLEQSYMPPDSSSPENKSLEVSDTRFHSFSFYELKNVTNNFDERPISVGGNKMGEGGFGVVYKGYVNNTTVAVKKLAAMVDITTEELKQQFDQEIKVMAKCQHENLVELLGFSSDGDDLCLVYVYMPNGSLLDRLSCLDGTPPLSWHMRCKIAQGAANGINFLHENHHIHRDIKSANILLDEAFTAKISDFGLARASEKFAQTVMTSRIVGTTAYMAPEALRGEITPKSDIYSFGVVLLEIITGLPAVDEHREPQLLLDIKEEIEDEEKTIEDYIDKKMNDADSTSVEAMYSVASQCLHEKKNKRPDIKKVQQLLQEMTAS

Row | Compound | DC50 (IRAK4; [1]) [nM] | DC50 (IRAK4; [2]) [nM] | IC50 (OCI-LY10) [nM]
1 | CN(CCN1CCO[C@@H](CCNc2cccc3c2C(=O)N(C2CCC(=O)NC2=O)C3=O)C1)C[C@H]1CC[C@H](n2cc(NC(=O)c3coc(-c4ccnc(NCC5CC5)c4)n3)c(C(F)F)n2)CC1 (stereo partly drawn) [I-339] | 10 to 100 | 10 to 100 | 50 to 100
2 | CN(CCCOCCc1ccc2c(c1)n(C)c(=O)n2C1CCC(=O)NC1=O)C[C@H]1CC[C@H](n2cc(NC(=O)c3coc(-c4ccnc(NCC5CC5)c4)n3)c(C(F)F)n2)CC1 (stereo partly drawn) [I-129] | < 10 |  | > 1000
3 | CN(CCOCCOCCOC12CC3CC(CC(C3)C1)C2)C[C@H]1CC[C@H](n2cc(NC(=O)c3cnn4ccc(N5CCNCC5)nc34)c(C(F)F)n2)CC1 [I-175] | > 1000 | > 1000 | > 1000
4 | CN(CCC1CCN(C(=O)c2ccc(CNCc3ccc(-c4ccc5c(cnn5CC5CC5)c4)cc3)cc2)CC1)C[C@H]1CC[C@H](n2cc(NC(=O)c3coc(-c4ccnc(NCC5CC5)c4)n3)c(C(F)F)n2)CC1 [I-134] | > 1000 | > 1000 | > 1000
5 | CN(C[C@H]1CC[C@H](n2cc(NC(=O)c3coc(-c4ccnc(NCC5CC5)c4)n3)c(C(F)F)n2)CC1)C1CCN(Cc2cccc3c2n(C)c(=O)n3[C@H]2CCC(=O)NC2=O)CC1 [I-308, 2-(2-((cyclopropylmethyl)amino)pyridin-4-yl)-N-(3-(difluoromethyl)-1-((1S,4r)-4-(((1-((1-((S)-2,6-dioxopiperidin-3-yl)-3-methyl-2-oxo-2,3-dihydro-1H-benzo [d]imidazol-4-yl)methyl)piperidin-4-yl)(methyl)amino)methyl)cyclohexyl)-1H-pyrazol-4-yl)oxazole-4-carboxamide] | < 10 |  | < 50
6 | CC[C@@H]1[C@H](F)C(=O)N[C@@H]1COc1ncc(C#CC2CCN(CCCC3CCN(c4cccc5c4C(=O)N(C4CCC(=O)NC4=O)C5=O)CC3)CC2)c2cc(C(N)=O)c(OC)cc12 (stereo partly drawn) [I-234] | 100 to 1000 | 10 to 100 | > 1000
7 | O=C1CCC(N2C(=O)c3cccc(NCCc4ccc(CCNC[C@H]5CC[C@H](n6cc(NC(=O)c7cnn8ccc(N9C[C@H]%10C[C@@H]9CO%10)nc78)c(C(F)F)n6)CC5)cc4)c3C2=O)C(=O)N1 (stereo partly drawn) [I-346, N-[3-(difluoromethyl)-1-[4-[[2-[4-[2-[[2-(2,6-dioxo-3-piperidyl)-1,3-dioxo-isoindolin-4-yl]amino]ethyl]phenyl]ethylamino]methyl]cyclohexyl]pyrazol-4-yl]-5-[(1R,4R)-2-oxa-5-azabicyclo[2.2.1]heptan-5-yl]pyrazolo[1,5-a]pyrimidine-3-carboxamide] | > 1000 |  | < 50
8 | CN(CCCOCCCc1cccc2c1n(C)c(=O)n2C1CCC(=O)N(C)C1=O)C[C@H]1CC[C@H](n2cc(NC(=O)c3coc(-c4ccnc(NCC5CC5)c4)n3)c(C(F)F)n2)CC1 (stereo partly drawn) [I-246] | 100 to 1000 |  | > 1000
9 | CN(C[C@H]1CC[C@H](n2cc(NC(=O)c3cnn4ccc(N[C@@H]5CCCC[C@@H]5O)nc34)c(C(F)F)n2)CC1)C1CCN(Cc2cccc3c2n(C)c(=O)n3C2CCC(=O)NC2=O)CC1 (stereo partly drawn) [I-279] | < 10 |  | > 1000
10 | O=C1CCC(N2C(=O)c3cccc(N4CCC(CCCN5CCC(n6cc(NC(=O)c7cnn8ccc(N9CCOCC9)nc78)c(C(F)F)n6)CC5)CC4)c3C2=O)C(=O)N1 (stereo not drawn) [I-228] | > 1000 |  | > 1000
11 | O=C1CCC(N2Cc3c(OCc4ccc(CN5CCN(C[C@H]6CC[C@H](n7cc(NC(=O)c8coc(-c9ccnc(NCC%10CC%10)c9)n8)c(C(F)F)n7)CC6)CC5)cc4)cccc3C2=O)C(=O)N1 (stereo partly drawn) [I-379] | > 1000 | > 1000 | 100 to 500
12 | O=C1CCC(N2C(=O)c3cccc(NCCCOCCCOC[C@H]4CC[C@H](n5cc(NC(=O)c6cnn7ccc(N8C[C@H]9C[C@@H]8CO9)nc67)c(C(F)F)n5)CC4)c3C2=O)C(=O)N1 (stereo partly drawn) [I-363] | > 1000 |  | > 1000
13 | NCC#Cc1ccc(-n2cc(NC(=O)c3coc(-c4ccnc(NCC5CC5)c4)n3)c(C(F)F)n2)cc1 [I-391, N-[l-[4-(3-aminoprop-1-ynyl)phenyl]-3-(difluoromethyl)pyrazol-4-yl]-2-[2-(cyclopropylmethylamino)-4-pyridyl]oxazole-4-carboxamide] | > 1000 | > 1000 | > 1000
14 | O=C1CCC(N2C(=O)c3cccc(NCCCOC[C@H]4CN(C[C@H]5CC[C@H](n6cc(NC(=O)c7cnn8ccc(N9CCOCC9)nc78)c(C(F)F)n6)CC5)CCO4)c3C2=O)C(=O)N1 (stereo partly drawn) [I-332] | 100 to 1000 | 10 to 100 | 100 to 500
15 | Cn1c(=O)n(C2CCC(=O)NC2=O)c2cccc(CCCOCC3CCN(C[C@H]4CC[C@H](n5cc(NC(=O)c6cnn7ccc(N8CCOCC8)nc67)c(C(F)F)n5)CC4)CC3)c21 (stereo partly drawn) [I-198] | < 10 |  | > 1000
16 | Cc1nc2cccc(NCCCOC3CCN(C[C@H]4CC[C@H](n5cc(NC(=O)c6cnn7ccc(N8CCOCC8)nc67)c(C(F)F)n5)CC4)CC3)c2c(=O)n1C1CCC(=O)NC1=O (stereo partly drawn) [I-211] | > 1000 | > 1000 | 50 to 100
17 | CN(CCCOCCCNc1cccc2c1C(=O)N(C1CCC(=O)NC1=O)C2=O)C[C@H]1CC[C@H](n2cc(NC(=O)c3coc(-c4ccnc(N5CCOCC5)c4)n3)c(C(F)F)n2)CC1 (stereo partly drawn) [I-397] | 100 to 1000 | 100 to 1000 | 50 to 100
18 | CC[C@@H]1CC(=O)N[C@@H]1COc1ncc(C#C[C@H]2CC[C@@H](CN3CCC(OCCCc4cccc5c4n(C)c(=O)n5C4CCC(=O)NC4=O)CC3)CC2)c2cc(C(N)=O)c(OC)cc12 (stereo partly drawn) [I-202] | 100 to 1000 | 10 to 100 | > 1000
19 | CN1C(=O)CCC(N2Cc3c(OCc4ccc(CN5CCN(C[C@H]6CC[C@H](n7cc(NC(=O)c8cnn9ccc(N%10CCOCC%10)nc89)c(C(F)F)n7)CC6)CC5)cc4)cccc3C2=O)C1=O (stereo partly drawn) [I-322] | 100 to 1000 | > 1000 | > 1000
20 | Cn1c(=O)n(C2CCC(=O)NC2=O)c2cccc(CN3CCC(CN4CCC(n5cc(NC(=O)c6cnn7ccc(N[C@@H]8CCCC[C@@H]8O)nc67)c(C(F)F)n5)CC4)CC3)c21 (stereo partly drawn) [I-150] | 10 to 100 |  | < 50
21 | O=C1CCC(N2C(=O)c3cccc(NCc4ccc(CN5CCN(C[C@H]6CC[C@H](n7cc(NC(=O)c8cnn9ccc(N%10CCOCC%10)nc89)c(C(F)F)n7)CC6)CC5)cc4)c3C2=O)C(=O)N1 (stereo partly drawn) [I-356] | > 1000 | 10 to 100 | < 50
22 | CN(C[C@H]1CC[C@H](n2cc(NC(=O)c3cnn4ccc(N5CCOCC5)nc34)c(C(F)F)n2)CC1)C1CCN(Cc2cccc3c2n(C)c(=O)n3C2CCC(=O)NC2=O)CC1 (stereo partly drawn) [I-213] | < 10 |  | > 1000
23 | O=C1CCC(N2Cc3c(NCCCOC4CCN(C[C@H]5CC[C@H](n6cc(NC(=O)c7cnn8ccc(N9CCOCC9)nc78)c(C(F)F)n6)CC5)CC4)cccc3C2=O)C(=O)N1 (stereo partly drawn) [I-330] |  | < 10 | > 1000
24 | Cn1c(=O)n(C2CCC(=O)NC2=O)c2cccc(CCCOC3CCN(C(=O)[C@H]4CC[C@H](n5cc(NC(=O)c6cnn7ccc(N8CCOCC8)nc67)c(C(F)F)n5)CC4)CC3)c21 (stereo partly drawn) [I-149] | < 10 |  | > 1000
25 | CN(CCCOCCCNC(=O)c1ccc(CNCc2ccc(-c3ccc4c(cnn4CC4CC4)c3)cc2)cc1)C(=O)[C@H]1CC[C@H](n2cc(NC(=O)c3coc(-c4ccnc(NCC5CC5)c4)n3)c(C(F)F)n2)CC1 [I-132] | > 1000 | > 1000 | > 1000
